Drawing on ChEMBL document CHEMBL4393657, “Tetrazole hybrids and their antifungal activities” (2019), this text covers Ratio, MIC and zone of inhibition for five compounds.

Each structure is given as a SMILES string. In brackets after ≈: the same amount, converted by molar mass.

Common to all, as to type: functional
Assay [1] deals with Candida parapsilosis. In words: Potency index, ratio for MIC of fluconazole to MIC of compound for Antifungal activity against Candida parapsilosis ATCC 22019 assessed as reduction in fungal cell growth incubated for 48 hrs by broth microdilution method. On the technique in general: In broth dilution the organism is exposed to a series of concentrations in liquid medium.
Assay [2] concerns Candida tropicalis. Description: Antifungal activity against Candida tropicalis assessed as reduction in fungal cell growth incubated for 48 hrs by broth microdilution method.
Assay [3] concerns Nakaseomyces glabratus. Description: Potency index, ratio for MIC of fluconazole to MIC of compound for antifungal activity against Candida glabrata assessed as reduction in fungal cell growth incubated for 48 hrs by broth microdilution method.
Assay [4] deals with Aspergillus niger. Description: Potency index, ratio for MIC of fluconazole to MIC of compound for antifungal activity against Aspergillus niger.
The test system of assay [5] is Nakaseomyces glabratus. Description: Antifungal activity against Candida glabrata assessed as reduction in fungal cell growth incubated for 48 hrs by broth microdilution method.
The test system of assay [6] is Cryptococcus neoformans. Description: Potency index, ratio for MIC of fluconazole to MIC of compound for antifungal activity against Cryptococcus neoformans LA314 assessed as reduction in fungal cell growth incubated for 48 hrs by broth microdilution method.
Assay [7] has as its system Candida parapsilosis. Description: Antifungal activity against Candida parapsilosis ATCC 22019 assessed as reduction in fungal cell growth incubated for 48 hrs by broth microdilution method. Particulars: Lodderomyces parapsilosis, ATCC 22019, 48 h.
For assay [8], the system named is Cryptococcus neoformans. In words: Antifungal activity against Cryptococcus neoformans LA314 assessed as reduction in fungal cell growth incubated for 48 hrs by broth microdilution method. Particulars: LA314, 48 h.
Assay [9] has as its system Candida albicans. Description: Antifungal activity against Candida albicans assessed as reduction in fungal cell growth incubated for 48 hrs by broth microdilution method.
For another assay, the system named is Pichia kudriavzevii. Description: Antifungal activity against Candida krusei assessed as reduction in fungal cell growth incubated for 48 hrs by broth microdilution method.
Assay [10] has as its system Candida albicans. Description: Potency index, ratio for MIC of fluconazole to MIC of compound for antifungal activity against Candida albicans V-01-191A-261 assessed as reduction in fungal cell growth incubated for 48 hrs by broth microdilution method.
Assay [11] deals with Aspergillus niger. In words: Antifungal activity against Aspergillus niger assessed as reduction in fungal cell growth incubated for 72 hrs by broth microdilution method.
Assay [12] relates to Candida tropicalis. Description: Potency index, ratio for MIC of fluconazole to MIC of compound for Antifungal activity against Candida tropicalis assessed as reduction in fungal cell growth incubated for 48 hrs by broth microdilution method.
Assay [13] concerns Nakaseomyces glabratus. In words: Antifungal activity against Candida glabrata ATCC 36583 by broth microdilution method.
Assay [14] concerns Candida tropicalis. In words: Antifungal activity against Candida tropicalis by broth microdilution method.
The subject of assay [15] is Candida albicans. In words: Antifungal activity against Candida albicans.
Assay [16] concerns Candida albicans. In words: Antifungal activity against Candida albicans NCCS 3471 assessed as inhibition zone at 50 ug/ml by disk diffusion method. The following applies: read-out: IZ. A general note: A growth-free zone around the sample is the usual read-out of agar diffusion tests.
The test system of assay [17] is Aspergillus niger. In words: Antifungal activity against Aspergillus niger assessed as inhibition zone at 50 ug/ml by disk diffusion method. Particulars: read-out: IZ.
The subject of assay [18] is Candida albicans. In words: Antifungal activity against Candida albicans NCCS 3471 assessed as inhibition zone at 10 ug/ml incubated for 3 to 4 days by disk diffusion method. Particulars: read-out: IZ.
Assay [19] relates to Aspergillus fumigatus. Description: Antifungal activity against Aspergillus fumigatus NCIM 902 assessed as inhibition zone at 10 ug/ml incubated for 3 to 4 days by disk diffusion method. The following applies: read-out: IZ.
In assay [20] the test system is Staphylococcus aureus. In words: Antifungal activity against methicillin-resistant Staphylococcus aureus after 24 hrs by broth microdilution assay.
For assay [21], the system named is Aspergillus fumigatus. In words: Potency index, ratio for MIC of fluconazole to MIC of compound for antifungal activity against Aspergillus fumigatus.
Assay [22] has as its system Candida albicans. Description: Antifungal activity against Candida albicans assessed as reduction in fungal cell growth incubated for 24 hrs by broth microdilution method.
Assay [23] relates to Staphylococcus aureus. In words: Potency index, ratio for MIC of methicillin to MIC of compound for […] incubated for 24 hrs by broth microdilution method.

As usually defined, the MIC is the lowest concentration that inhibits growth of the organism.

For `C[C@H](n1nnnc1CCN1CCN(c2cccc(C(F)(F)F)c2)CC1)[C@](O)(Cn1cncn1)c1ccc(F)cc1F`, the Ratio in the assay with Candida parapsilosis [1], in the assay on Nakaseomyces glabratus [3], in the assay on Aspergillus niger [4], in the assay with Cryptococcus neoformans [6], in the assay on Candida albicans [10] and in the assay on Candida tropicalis [12] was 16 each time. The MIC fell in the range of 0.12 to 1 µg/mL (≈ 0.208 to 1.73 µM) in the assay with Candida tropicalis [2]; 0.12 to 1 µg/mL (≈ 0.208 to 1.73 µM) in the assay with Nakaseomyces glabratus [5]; 0.12 to 1 µg/mL (≈ 0.208 to 1.73 µM) with Candida parapsilosis [7]; 0.12 to 1 µg/mL (≈ 0.208 to 1.73 µM) in the assay with Cryptococcus neoformans [8]; 0.12 to 16 µg/mL (≈ 0.208 to 27.7 µM) in the assay with Candida albicans [9]; 0.12 to 1 µg/mL (≈ 0.208 to 1.73 µM) with Pichia kudriavzevii. Also, the MIC with Aspergillus niger [11] is 0.12 to 1 µg/mL (≈ 0.208 to 1.73 µM).
Regarding `CC(=O)N1CCN(c2ccc(OCC3COC(Cn4ccnc4)(c4ccc(Cl)cc4Cl)O3)cc2)CC1` (stereo not given) [KETOCONAZOLE], the MIC in the assay with Nakaseomyces glabratus [13], against Candida tropicalis [14] and against Candida albicans [15] was 25 to 50 µg/mL (≈ 47 to 94.1 µM) in each case. Further, the results for the zone of inhibition at 50 µg/mL in the assay with Candida albicans [16] and with Aspergillus niger [17] were 26 mm and 23 mm, respectively. Besides, the zone of inhibition at 10 µg/mL in the assay on Candida albicans [18] stood at 24 mm; in the assay with Aspergillus fumigatus [19] it was 23 mm.
As for `COc1cccc(OC)c1C(=O)N[C@@H]1C(=O)N2[C@@H]1SC(C)(C)[C@@H]2C(=O)O` [METHICILLIN], in the assay with Staphylococcus aureus [20], the MIC was > 250 µg/mL.
Turning to `O=C(/C=C/c1ccc(OC(F)F)c(O)c1)c1ccc(-n2cnnn2)cc1`, the Ratio in the assay with Aspergillus niger [4] and in the assay on Aspergillus fumigatus [21] was >4 throughout.
On to `FC(F)(F)c1cc(-c2ccc(I)cc2)nc2nnnn12`, for which the MIC with Candida albicans [22] was 62.5 µg/mL (≈ 160 µM). Moreover, the Ratio in the assay on Staphylococcus aureus [23] was >64.
